Assay results from patent US20230000876A1, “TREATING CANCERS WITH A CYCLIN-DEPENDENT KINASE INHIBITOR” (Nuvation Bio Inc., priority 2021, published 2023).
Where two headings read alike, the source gives them in different places.

Experiments:
[1] = Pharmacokinetics and brain distribution after single oral dose, mice; format: in vivo, male CD1 mice
Method: The pharmacokinetics and brain distribution in maleCD1 mice and Sprague-Dawley rats following a single oral (PO) dose was evaluated. The compound of formula (I) was administered once at 10 mg/kg to mice and at 1, 10, 30, and 100 mg/kg to rats. All doses, compound of formula (I) concentrations, and derived PK parameters are expressed as the free base of the compound of formula (I).
The in-life portion of these studies was performed by Alliance Pharma (Malvern, Pa.) according to Protocols 200107-02 (mice) and 1910158-02 (rats). Animals were assigned randomly to the dose groups and were fasted 12 hours prior to dosing. Water was available ad libitum. The compound of formula (I) (as an HCl salt) was given to male CD1 mice at 10 mg/kg single PO dose, while in Sprague-Dawley rats, the doses were 1, 10, 30, and 100 mg/kg. In both studies, the compound of formula (I) was formulated in 0.5% hydroxypropyl methylcellulose (HPMC)/0.2% Tween 80 and the dosing volume was 5 mL/kg for all dose groups.
Whole blood was collected at 2, 4, 6, and 12 hours post dose from mice and predose and 1, 2, 4, 8, 12, and 24 hours post dose from rats into tubes containing dipotassium ethylenediaminetetraacetic acid (K2EDTA). Blood was obtained from 3 mice and 4 rats per time-point per dose level. The blood samples were processed into plasma analyzed at Alliance Pharma using the method as described below.
The brain tissue was collected from mice at 2, 4, 6, and 12 hours post dose and was collected from rats at 6 hours post dose given 1, 10, 30, or 100 mg/kg of the compound of formula (I). Brain tissue was obtained from 3 mice per time-point at the 10 mg/kg dose level and 4 rats per dose level at the 6-hour post dose time-point.
Brain tissue was rinsed by phosphate-buffered saline (PBS) buffer immediately after harvest, weighed, and mixed with solvent (MeOH:H2O [volume over volume of 20:80]) with a ratio of tissue to solvent of 1:4 (weight over volume). […] After homogenization, the homogenate was aliquoted out for sample analysis.
The concentrations of the compound of formula (I) in the plasma and brain homogenate were determined versus a calibration curve prepared in plasma and naïve brain homogenate, respectively. Samples were deproteinized with acetonitrile containing tolbutamide as internal standard. After centrifugation, the supernatants were analyzed by liquid chromatography with tandem mass spectrometry (LC-MS/MS). Chromatography was performed with a Zorbax SB-C18 (50×2.1 mm, […]) column under gradient conditions described in Table 22. Mobile Phase A (0.1% formic acid [FA] in water) and Mobile Phase B (0.1% FA in acetonitrile) were delivered as a flow rate of 0.8 mL/min. LC-MS/MS was performed using a positive TurboIonSpray® interface on a SciexAPI 4000 and multiple-reaction monitoring (MRM) over a concentration range of 1 ng/mL to 1000 (rats) or 2000 (mice) ng/mL for the plasma and brain homogenate samples.
The mean plasma concentration-time data of the compound of formula (I) was used to determine the pharmacokineticparameters by standard noncompartmental methods using Phoenix® WinNonlin (version 8.2.0; Certara, Princeton, N.J.). Graphs were plotted in Prism® (version 2.3.0; GraphPad, San Diego, Calif.). Concentrations were rounded to 3 significant figures.

[2] = test system: 22Rv1 tumors; experiment: 22Rv1 prostate tumor model (Example 3); format: in vivo, male Balb/c nude mice; conditions: for T/C / TGI: PG-D24
Method: The in vivo anti-tumor efficacy of the compound of formula (I) either alone or in combination with enzalutamide prostate tumor model on male Balb/c nude mice was evaluated. The cell line is derived from a xenograft that was serially propagated in mice after castration—induced regression and relapse of the parental, androgen-dependent CWR22 xenograft.
In the study, the compound of formula (I) was dosed orally (po) once daily (QD) and enzalutamide, when administered, was dosed orally once daily for 25 days, as shown in Table 8.
The 22Rv1 tumor cells were maintained in vitro in RPMI1640 medium supplemented with 10% heat inactivated fetal bovine serum at 37° C. in an atmosphere of 5% CO2 in air. The tumor cells were routinely subcultured twice weekly. The cells growing in an exponential growth phase were harvested and counted for tumor inoculation.
Each mouse was inoculated subcutaneously at the right flank with 22Rv1 tumor cells (5*10^6) with 50% Matrigel for tumor development. The treatments were started on day 7 after tumor inoculation when the average tumor volume reached 94 mm^3. A total of 48 mice were selected and assigned into 6 groups. The testing articles were administrated to the mice according to Table 8.
The major endpoint was to see if the tumor growth could be delayed or mice could be cured. Tumor size was measured twice weekly in two dimensions using a caliper, and the volume was expressed in mm^3 using the formula: V=0.5 a×b^2 where a and b are the long and short diameters of the tumor, respectively. The tumor sizes are then used for the calculation of T/C and TGI values.
The T/C value (in percent) is an indication of antitumor effectiveness; T and C are the mean volume of the treated and control groups, respectively, on a given day.
TGI was calculated for each group using the formula: TGI (%)=[1−(Ti−T0)/(Vi−V0)]×100; Ti is the average tumor volume of a treatment group on PG-Di, T0 is the average tumor volume of the treatment group on the day of treatment start, Vi is the average tumor volume of the vehicle control group on the same day with Ti, and V0 is the average tumor volume of the vehicle group on the day of treatment start.
All groups were taken down on PG-D24 and PG-D25 when the average tumor size of vehicle group reached 2305 mm^3.
Summary statistics, including mean and the standard error of the mean (SEM), are provided for the tumor volume of each group at each time point. For comparison among groups, a one-way ANOVA was performed. All the analysis were conducted using GraphPad Prism software. p<0.05 was considered to be statistically significant.

CC(C)N1CCOc2c(F)cc(-c3nc(Nc4ccc(C5CCN(C)CC5)cn4)ncc3F)cc21 [Compound (I), 5-fluoro-4-(8-fluoro-4-isopropyl-3,4-dihydro-2H-benzo[b][1,4]oxazin-6-yl)-N-(5-(1-methylpiperidin-4-yl)pyridin-2-yl)pyrimidin-2-amine]
Half-life in brain versus plasma ([1]; in vivo animal models, oral administration): longer half-life in the brain than in the plasma | Kp at 2 h ([1]; male, CD1, mouse, brain, po, 10 mg/kg, mice, single PO 10 mg/kg, 2 h, read-out: Brain:Plasma Ratio, mean (SD)): 1.7 | Kp at 4 h ([1]; male, CD1, mouse, brain, po, 10 mg/kg, mice, single PO 10 mg/kg, 4 h, read-out: Brain:Plasma Ratio, mean (SD)): 2.1 | Kp at 6 h ([1]; male, CD1, mouse, brain, po, 10 mg/kg, mice, single PO 10 mg/kg, 6 h, read-out: Brain:Plasma Ratio, mean (SD)): 1.9 | Kp at 12 h ([1]; male, CD1, mouse, brain, po, 10 mg/kg, mice, single PO 10 mg/kg, 12 h, read-out: Brain:Plasma Ratio, mean (SD)): 3.3 | Kp at 12 h ([1]; male, CD1, mouse, brain, po, 10 mg/kg, mice, single PO 10 mg/kg, at 2, 4, 6, and 12 hours post-dose, read-out: Brain-to-plasma concentration ratio): > 1.5 | concentration at 2 h ([1]; male, CD1, mouse, brain, mice, single PO 10 mg/kg, 2 h, read-out: Brain Conc): 309 ng/mL | concentration at 4 h ([1]; male, CD1, mouse, brain, mice, single PO 10 mg/kg, 4 h, read-out: Brain Conc): 436 ng/mL | concentration at 6 h ([1]; male, CD1, mouse, brain, mice, single PO 10 mg/kg, 6 h, read-out: Brain Conc): 464 ng/mL | concentration at 12 h ([1]; male, CD1, mouse, brain, mice, single PO 10 mg/kg, 12 h, read-out: Brain Conc): 345 ng/mL | concentration at 2 h ([1]; male, CD1, mouse, plasma, mice, single PO 10 mg/kg, 2 h, read-out: Plasma Conc): 187 ng/mL | concentration at 4 h ([1]; male, CD1, mouse, plasma, mice, single PO 10 mg/kg, 4 h, read-out: Plasma Conc): 209 ng/mL | concentration at 6 h ([1]; male, CD1, mouse, plasma, mice, single PO 10 mg/kg, 6 h, read-out: Plasma Conc): 247 ng/mL | concentration at 12 h ([1]; male, CD1, mouse, plasma, mice, single PO 10 mg/kg, 12 h, read-out: Plasma Conc): 105 ng/mL | T/C ([2]; 10 mg/kg QD): 61.13% | TGI ([2]; 10 mg/kg QD): 40.49% | T/C ([2]; Compound (I) 30 mg/kg QD): 28.34% | TGI ([2]; Compound (I) 30 mg/kg QD): 74.71% | Tumor volume (mean ± SEM) ([2]; Group 3, 10 mg/kg PO QD, day 0): 94 ± 5 mm^3 | Tumor volume (mean ± SEM) ([2]; Group 3, 10 mg/kg PO QD, day 3): 154 ± 12 mm^3 | Tumor volume (mean ± SEM) ([2]; Group 3, 10 mg/kg PO QD, day 7): 257 ± 28 mm^3 | Tumor volume (mean ± SEM) ([2]; Group 3, 10 mg/kg PO QD, day 10): 378 ± 40 mm^3 | Tumor volume (mean ± SEM) ([2]; Group 3, 10 mg/kg PO QD, day 14): 598 ± 58 mm^3 | Tumor volume (mean ± SEM) ([2]; Group 3, 10 mg/kg PO QD, day 17): 825 ± 87 mm^3 | Tumor volume (mean ± SEM) ([2]; Group 3, 10 mg/kg PO QD, day 21): 1152 ± 114 mm^3 | Tumor volume (mean ± SEM) ([2]; Group 3, 10 mg/kg PO QD, day 24): 1409 ± 102 mm^3 | Tumor volume (mean ± SEM) ([2]; Group 4, 30 mg/kg PO QD, day 0): 94 ± 4 mm^3 | Tumor volume (mean ± SEM) ([2]; Group 4, 30 mg/kg PO QD, day 3): 131 ± 13 mm^3 | Tumor volume (mean ± SEM) ([2]; Group 4, 30 mg/kg PO QD, day 7): 165 ± 25 mm^3 | Tumor volume (mean ± SEM) ([2]; Group 4, 30 mg/kg PO QD, day 10): 188 ± 30 mm^3 | Tumor volume (mean ± SEM) ([2]; Group 4, 30 mg/kg PO QD, day 14): 289 ± 40 mm^3 | Tumor volume (mean ± SEM) ([2]; Group 4, 30 mg/kg PO QD, day 17): 398 ± 60 mm^3 | Tumor volume (mean ± SEM) ([2]; Group 4, 30 mg/kg PO QD, day 21): 546 ± 67 mm^3 | Tumor volume (mean ± SEM) ([2]; Group 4, 30 mg/kg PO QD, day 24): 653 ± 64 mm^3
